Laboratory results: US20250213596A1, “CANNABINOID-CONTAINING COMPOSITIONS” (BUZZELET DEVELOPMENT AND TECHNOLOGIES LTD., priority 2022, published 2025)

Test: Flowability / transfer of the product from vessel to vessel
Assay type: physicochemical
Details: as obtained, ambient temperature
Text: As used herein, the term “flowable” with regard to a composition is intended to mean that a majority of particles of the composition have the ability to move freely relative to an inner surface of a vessel in which they are contained.
Purified THC at 99% purity (dronabinol) was used.
A product comprising 66% silica and 33% THC was formed. It felt dry and was free flowing. It transferred fully from one vessel to another.

SMILES: CCCCCc1cc(O)c2c(c1)OC(C)(C)[C@@H]1CCC(C)=C[C@@H]21 [dronabinol]
- flowability of the material (pourable / free flowing): could not be poured out of its container
